Key:
[1] = target: T1, human carbonic anhydrase II (Homo sapiens, UniProt P00918); assay: Human carbonic anhydrase II colorimetric (p-nitrophenyl acetate) inhibition assay; format: biochemical; settings: mean ± SEM, three independent experiments in triplicate; read-out: CA II (IC50)
T1 construct: purchased Sino Biological Inc, Beijing, China
Procedure: (§1) In brief, the reaction mixture contained 60 μL of 50 mM Tris-sulfate buffer (pH 7.6, containing 0.1 mM ZnCl2),10 μL (0.5 mM) of the test compound in 1% DMSO, and 10 μL of human carbonic anhydrase II and IX (Sino Biological Inc, Beijing, China). All the ingredients were mixed well and pre-incubated at 25°C for 10 min. Substrate p-nitrophenyl acetate was prepared as a 6 mM stock solution using 5% of acetonitrile in buffer and was used fresh. […] The total assay volume was adjusted to 100 μL and further incubated at 37°C for 30 min. Furthermore, all the ingredients were mixed properly, and absorbance was measured. […] The results reported are the mean of triplicate experiments (±SEM) and expressed IC50 values, which were calculated.

[2] = target: T2, human carbonic anhydrase IX (Homo sapiens, UniProt Q16790); assay: Human carbonic anhydrase IX colorimetric (p-nitrophenyl acetate) inhibition assay; format: biochemical; settings: mean ± SEM, three independent experiments in triplicate; read-out: CA IX (IC50)
T2 construct: purchased Sino Biological Inc, Beijing, China
Procedure: as §1

MES-induced seizures = assay: Maximal electroshock-induced seizure (MES) test; format: in vivo, male Swiss albino mice; settings: for Minimum active dose (mg/kg) MES 0.5 h / Minimum active dose (mg/kg) MES 4 h: oral, lowest dose active in half or more of the mice, n = 6;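 as to % protection MES 0.5 h: percent reduction of the test group versus the control group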;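 as to % protection MES 4 h: percent reduction of the test group versus the control group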
PTZ-induced seizures = assay: Subcutaneous pentylenetetrazole (sc-PTZ) test; format: in vivo, male Swiss albino mice; settings: for Minimum active dose (mg/kg) Sc-PTZ 0.5 h / Minimum active dose (mg/kg) Sc-PTZ 4 h: oral, lowest dose active in half or more of the mice, n = 6;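 as to % protection Sc-PTZ 0.5 h: percent reduction of the test group versus the control group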;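 as to % protection Sc-PTZ 4 h: percent reduction of the test group versus the control group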
induced seizures = assay: Anticonvulsant screening (MES and sc-PTZ), outcome recovery/death
mice = assay: Rotarod neurotoxicity screening; format: in vivo, male Swiss albino mice; settings: for Neurotoxicity dose (mg/kg) 0.5 h / Neurotoxicity dose (mg/kg) 4 h: rotarod, oral doses 30, 100, 300 mg/kg; for Neurotoxicity (rotarod test), result in words: at the highest dose (300 mg/kg)
Procedure: The rotarod test, as described in the literature, was used to evaluate neurotoxicity (NT) in mice. In brief, six mice (one group) were trained to balance on a spinning rod (3 cm diameter and 6 rpm speed) to familiarize with the rotarod apparatus (Orchid Scientific, India). Each mouse underwent three trials to remain on the rotating rod for over 1 minute, with the experiment’s cutoff time (180 s) remaining constant. Different pre-oral (p.o.) doses of test and standard substances were administered to the trained animals.

| SMILES | IC50 [1] | IC50 [2] | % protection MES 0.5 h (MES-induced seizures; 100 mg/kg oral) | % protection MES 4 h (MES-induced seizures; 300 mg/kg oral) | Minimum active dose (mg/kg) MES 0.5 h (MES-induced seizures) | Minimum active dose (mg/kg) MES 4 h (MES-induced seizures) | % protection Sc-PTZ 0.5 h (PTZ-induced seizures; 300 mg/kg oral) | % protection Sc-PTZ 4 h (PTZ-induced seizures; 300 mg/kg oral) | Minimum active dose (mg/kg) Sc-PTZ 0.5 h (PTZ-induced seizures) | Minimum active dose (mg/kg) Sc-PTZ 4 h (PTZ-induced seizures) | Recovery/death (induced seizures; 30 mg/kg oral) | Recovery/death (induced seizures; 100 mg/kg oral) | Recovery/death (induced seizures; 300 mg/kg oral) | % protection MES 4 h (MES-induced seizures; 100 mg/kg oral) | % protection MES 0.5 h (MES-induced seizures; 300 mg/kg oral) | Neurotoxicity dose (mg/kg) 0.5 h (mice) | Neurotoxicity dose (mg/kg) 4 h (mice) | % protection Sc-PTZ 0.5 h (PTZ-induced seizures; 100 mg/kg oral) | % protection Sc-PTZ 4 h (PTZ-induced seizures; 100 mg/kg oral) | further results |
| --- | --- | --- | --- | --- | --- | --- | --- | --- | --- | --- | --- | --- | --- | --- | --- | --- | --- | --- | --- | --- |
| COc1ccc(C(=O)Nc2nncs2)cc1OCCN1CCCCC1 [Compound 7b, 4-Methoxy-3-(2-(piperidin-1-yl)ethoxy)-N-(1,3,4-thiadiazol-2-yl)benzamide] | 740 ± 30 nM | 730 ± 20 nM | 29.23% | 47.69% | 100 mg/kg | 300 mg/kg | 23.07% | 32.21% | 300 mg/kg | 300 mg/kg | Recovery | Recovery | Recovery |  |  |  |  |  |  |  |
| CN(C)CCOc1cccc(C(=O)Nc2nncs2)c1 [Compound 6e, 3-(2-(dimethylamino)ethoxy)-N-(1,3,4-thiadiazol-2-yl)benzamide] | 230 ± 20 nM | 210 ± 40 nM | 32.3% | 73.83% | 30 mg/kg | 100 mg/kg | 46.55% | 74.2% | 30 mg/kg | 100 mg/kg | Recovery | Recovery | Recovery | 55.38% | 46.15% | - (The indication - (dash) denotes a lack of action at the maximum dose supplied (300 mg/kg)) | - (The indication - (dash) denotes a lack of action at the maximum dose supplied (300 mg/kg)) | 32.39% | 63.58% | % protection MES 0.5 h (MES-induced seizures; 30 mg/kg oral): 38.46%; % protection Sc-PTZ 0.5 h (PTZ-induced seizures; 30 mg/kg oral): 39.02% |
| CC(=O)Nc1nnc(S(N)(=O)=O)s1 [Acetazolamide, reference compound] |  |  | 66.15% |  | 100 mg/kg | 100 mg/kg |  |  | 100 mg/kg | 100 mg/kg |  | Recovery |  | 58.46% |  | - (The indication - (dash) denotes a lack of action at the maximum dose supplied (300 mg/kg)) | - (The indication - (dash) denotes a lack of action at the maximum dose supplied (300 mg/kg)) | 73.13% | 58.46% | Neurotoxicity (rotarod test), result in words (mice): no neurotoxicity |
| O=C(Nc1nncs1)c1cccc(OCCN2CCCCC2)c1 [Compound 6b, 3-(2-(piperidin-1-yl)ethoxy)-N-(1,3,4-thiadiazol-2-yl)benzamide] |  | 230 ± 40 nM | 30.76% | 50.76% | 100 mg/kg | 300 mg/kg | 10.20% | 34.17% | 300 mg/kg | 300 mg/kg | Recovery | Recovery | Recovery |  | 41.53% | - (The indication - (dash) denotes a lack of action at the maximum dose supplied (300 mg/kg)) | - (The indication - (dash) denotes a lack of action at the maximum dose supplied (300 mg/kg)) |  |  |  |
| O=C(Nc1nncs1)c1cccc(OCCN2CCCC2)c1 [Compound 6c, 3-(2-(pyrrolidin-1-yl)ethoxy)-N-(1,3,4-thiadiazol-2-yl)benzamide] |  | 470 ± 20 nM | 26.15% | 46.13% | 100 mg/kg | 100 mg/kg | 29.26% | 40.21% | 100 mg/kg | 300 mg/kg | Recovery | Recovery | Recovery | 35.38% | 38.46% | - (The indication - (dash) denotes a lack of action at the maximum dose supplied (300 mg/kg)) | - (The indication - (dash) denotes a lack of action at the maximum dose supplied (300 mg/kg)) | 33.81% |  |  |
| CCCC(CCC)C(=O)O [Sodium valproate, reference compound] |  |  |  | 63.07% | 300 mg/kg | 300 mg/kg | 77.72% | 63.03% | 300 mg/kg | 300 mg/kg |  |  | Recovery |  | 72.30% | - (The indication - (dash) denotes a lack of action at the maximum dose supplied (300 mg/kg)) | - (The indication - (dash) denotes a lack of action at the maximum dose supplied (300 mg/kg)) |  |  | Neurotoxicity (rotarod test), result in words (mice): no neurotoxicity |
| COc1ccc(C(=O)Nc2nncs2)cc1OCCN(C)C [Compound 7e, 4-Methoxy-3-(2-(dimethylamino)ethoxy)-N-(1,3,4-thiadiazol-2-yl)benzamide] | 530 ± 30 nM | 610 ± 20 nM | 43.07% | 72.30% | 30 mg/kg | 100 mg/kg | 60% | 67.81% | 30 mg/kg | 100 mg/kg | Recovery | Recovery | Recovery | 58.46% | 60% | - (The indication - (dash) denotes a lack of action at the maximum dose supplied (300 mg/kg)) | - (The indication - (dash) denotes a lack of action at the maximum dose supplied (300 mg/kg)) | 43.07% | 61.04% | % protection MES 0.5 h (MES-induced seizures; 30 mg/kg oral): 36.92%; % protection Sc-PTZ 0.5 h (PTZ-induced seizures; 30 mg/kg oral): 34.26% |
| O=C(Nc1nncs1)c1cccc(OCCN2CCOCC2)c1 [Compound 6a, 3-(2-morpholinoethoxy)-N-(1,3,4-thiadiazol-2-yl)benzamide] |  | 400 ± 50 nM | 18.46% | 43.07% | 100 mg/kg | 300 mg/kg |  | 19.08% | - (The indication - (dash) denotes a lack of action at the maximum dose supplied (300 mg/kg)) | 300 mg/kg | Recovery | Recovery | Recovery |  | 30.76% | - (The indication - (dash) denotes a lack of action at the maximum dose supplied (300 mg/kg)) | - (The indication - (dash) denotes a lack of action at the maximum dose supplied (300 mg/kg)) |  |  |  |
| COc1ccc(C(=O)Nc2nncs2)cc1OCCN1CCOCC1 [Compound 7a, 4-Methoxy-3-(2-morpholinoethoxy)-N-(1,3,4-thiadiazol-2-yl)benzamide] | 970 ± 50 nM | 880 ± 40 nM | 16.92% | 40% | 100 mg/kg | 300 mg/kg | 16.64% | 15.38% | 300 mg/kg | 300 mg/kg | Recovery | Recovery | Recovery |  |  |  |  |  |  |  |

From paper PMC11861159, “Design, synthesis, and in vitro, in vivo, and in silico evaluation of novel substituted 1,3,4-thiadiazole derivatives as anticonvulsant agents” (Frontiers in Chemistry, 2025)
